Legend:
[1] = system: hPSC-derived neural tube (neural folding morphogenesis); assay: Modeling neural tube defects in the stem-cell derived neural tube morphogenesis system; type: cell-based, human; settings: for neural apical curvature / neural tissue morphology (thickness, hinges): treated samples vs control samples, ROCK inhibitor 10 μM day 5-8
Procedure: Because animal models are limited in their capacity to explain how human genetics affects neural tube closure, it was tested whether the reproducible human stem-cell system could be used to model neural tube defects (NTDs). This example focuses on various compounds that induce NTDs: ROCK inhibitor, novobiocin, and valproic acid (FIG. 24). […] In turn, ROCK upregulates apical actomyosin contractility in neural cells which leads to apical constriction of the neural plate. Neural plate contraction then drives neural folding. It was thus set out to determine whether apical contractility plays a role during in vitro neural folding. […] The formation of an actomyosin gradient is followed by apical neural contraction which leads to folding.
To perturb ROCK/Shroom3 signaling and apical neural contractility a highly specific molecular inhibitor of ROCK (Y-27632) was applied. […] The effects of novobiocin and valproic acid were also examined. […] It was further concluded that the in vitro lumen model system is suitable for studying how abnormalities in signaling pathways lead to neural tube defects in a human genetic context.
Day 1. Seeding onto micropatterns. hPSCs are released from well-plate surfaces using non-enzymatic agitation following manufacturer's instructions (ReleSR, STEMCELL Technologies, Cambridge, MA). Cells are resuspended as a single-cell suspension at densities of 750K-1M cells/mL in mTeSR1 containing 10 μM ROCK inhibitor Y27632 (Abcam, Cambridge, UK). 200 μL of cell suspension is then pipetted onto prepatterned dishes and allowed to settle for 15 minutes before adding 1 mL of mTeSR1 and allowing cells to settle for 10 additional minutes. Excess media is aspirated, leaving enough liquid to cover patterns and replaced with fresh 2 mL of mTeSR until the following day.
Day 2. Matrigel addition. mTESR1 media is exchanged with a neural induction media containing Matrigel (4%, v/v). Neural induction media is supplemented with 5 μM of TGFβ-inhibitor SB-431542.
Day 3-4. Lumen Formation. Dishes are left unperturbed at day 3 to allow transition into 3D stem-cell tissue containing a single lumen.
Day 5-9. Exposure to Morphogens. Neural induction media is supplemented with 5 ng/ml BMP4 in addition to 5 μM of SB-431542. Media is exchanged daily. Cell fates are observed on day 6 and folding is observed during days 7-9.
All samples were fixed, immunostained and imaged as whole mounts in the culture dish. Samples are fixed in 4% PFA, 1 hr at room temperature (RT), washed three times for 15 min in PBS, and permeabilized in 1.5% Triton-PBS over-night (o/n) at 4 C. The following day, samples are washed in 0.3% Triton, and blocked for 2 hrs RT (10% NGS, 1% BSA, 0.3% Triton-X in PBS). Primary antibodies are used at 1:100-1:200 in blocking solution o/n at 4° C. Next, samples are washed in 0.1% Tween in PBS, and incubated with secondary antibodies 1:500-1:1000 in PBT o/n at 4° C. DAPI and phalloidin are also added at this stage. Finally, samples are washed in PBS for 1 hr, and imaged.
ROCK inhibition is achieved using the small molecule Y-27632 reconstituted in water at a stock concentration of 10 mM. ROCK inhibitor was applied at a concentration of 10 μM (1:1000 dilution) at day 5, together with BMP, and maintained for 72 hrs until the end of the experiment at day 8. Media was changed daily. Control experiments were carried under identical conditions, adding water instead of ROCK inhibitor.

[2] = system: 3D hPSC; assay: BMP4 exposure of micropatterned 3D hPSC without neural induction (immunostaining, qPCR); type: cell-based, human
Source text: FIG. 9 provides a schematic representing in vitro morphogenesis in three differentiation protocols in accordance with embodiments. (i) Exposure to BMP, without neural induction, results in an amnion-like tissue containing cells from three germ layers without formation of a neural fold. (ii) Neural tube morphogenesis is observed when neural induction is followed by exposure to BMP4. (iii) Homogenous expression of forebrain markers is observed under exposure to neural induction without BMP.
FIG. 10 provides a schematic and results of the experimental timeline for three protocols detailed in FIG. 9. (B) Experimental timeline for the three protocols. Neural induction media includes N2 supplement and TGFβ inhibitor SB-431542 (SB). (C) Vertical sections of immunostained samples from the three differentiation protocols.
FIG. 19 provides a schematic, images, and bar graph of cellular differentiation in the absences of neural induction in which no neural folding is observed, in accordance with embodiments. (A) Experimental timeline for BMP4 exposure without neural induction. (B) Bright field images showing development over 3 days. At day 4, cells migrate away from the micropatterned area. (C) Horizonal and (D) vertical sections of samples at day 3. Micropattern diameter is indicated in microns. Cells close to the glass express mesendoderm markers Brachyury (BRA) and SOX17. In 450 μm patterns, SOX2 is observed at the center of the tissue. Cells at the colony edges and at the top express amniotic ectoderm marker CDX2. A single lumen is maintained and no spontaneous folding is observed. (E) qPCR analysis for differentiation markers as a function of BMP concentration. BMP results in upregulation of the WNT and NODAL pathways, upregulation of mesendoderm markers EOMES/Brachyury/SOX17, amniotic ectoderm marker GATA3, downregulation of ectoderm marker SOX2 and pluripotency marker NANOG. Scale bar 50 μm unless indicated otherwise.
The system was next applied to study which tissues contribute to neural folding. This question has been studied for over a century in animal models, and multiple hypothesis have been developed regarding the mechanical role of the neural tissue, neighboring surface ectoderm and underlying mesoderm. However, the limited accessibility in utero led to inconclusive and often contradictive results. The in vitro system allows to systemically control tissue composition through the choice of small molecules in the culture media (FIGS. 9 & 10). This system allows discernment of the tissues which are necessary and sufficient for neural tube morphogens. […] Mesoderm fates are suppressed by TGFβ inhibition, and only appear if the period of TGFβ inhibition is decreased (FIG. 17). […] It was next examined whether the non-neural ectoderm is required for folding. […]

[3] = ROCK inhibition, Y-27632 10 μM day 5-8, vs control
[4] = as a function of BMP concentration, no neural induction

Row | Compound | neural apical curvature [1] | neural tissue morphology (thickness, hinges) [1] | Shroom3 and F-actin localization to the apical neural surface [1, 3] | actin localization to the basal surface of epidermal/neural tissues and the epidermal apical surface [1, 3] | neural folding morphology ([1]; Y-27632 10 μM applied at day 5 together with BMP, maintained 72 hrs until day 8, vs control (water)) | cell fates and folding morphogenesis ([2]; addition of BMP4 without neural induction) | qPCR: WNT and NODAL pathways [2, 4] | qPCR: ectoderm marker SOX2 and pluripotency marker NANOG [2, 4] | qPCR: mesendoderm markers EOMES/Brachyury/SOX17, amniotic ectoderm marker GATA3 [2, 4]
1 | CO[C@@H]1[C@@H](OC(N)=O)[C@@H](O)[C@H](Oc2ccc3c(O)c(NC(=O)c4ccc(O)c(CC=C(C)C)c4)c(=O)oc3c2C)OC1(C)C [novobiocin] | significantly less curved than control samples | thick and flat neural tissue, which lacks neural hinges |  |  |  |  |  |  | 
2 | C[C@@H](N)[C@H]1CC[C@H](C(=O)Nc2ccncc2)CC1 [Y-27632] | significantly less curved than control samples | thick and flat neural tissue, which lacks neural hinges | disrupted | not significantly perturbed | severe folding defects similar to the open book morphology observed in embryonic cranial NTDs |  |  |  | 
3 | BMP4: bone morphogenetic protein 4, morphogen |  |  |  |  |  | mesoderm and ectoderm cell fates, but lack neural tissue and does not exhibit folding | upregulation | downregulation | upregulation
4 | CCCC(CCC)C(=O)O [valproic acid] | significantly less curved than control samples | thick and flat neural tissue, which lacks neural hinges |  |  |  |  |  |  | 

From patent US20240287430A1, “Systems and Methods for Cellular Lumen Formation and Cellular Differentiation” (The Regents of the University of California, priority 2021, published 2024)
